Data reported in US20230002374A1, “GPR52 MODULATOR COMPOUNDS” (Heptares Therapeutics Limited, priority 2019, published 2023).
Like-named read-outs stand apart in the source and are kept apart here.

Molecular target: human GPR52 (Homo sapiens, UniProt Q9Y2T5)
Assay: GPR52 Agonist Functional cAMP Assay;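 further: HEKf cells transduced with GPR52 BacMam for 24 h, 2000 per well, exposed to compounds 30 min at 37° C with 0.5 mM IBMX, cAMP read by HTRF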
Conditions: for EC50: pEC50 average, HEKf cells infected with human GPR52 BacMam virus, cAMP HTRF, 30 min at 37° C.
[1] = maximal response normalised to DMSO (0%) and maximal compound 7m (J. Med. Chem., 2014, 57, 5226) response (100%)

human GPR52, sequence (Q9Y2T5 whole entry): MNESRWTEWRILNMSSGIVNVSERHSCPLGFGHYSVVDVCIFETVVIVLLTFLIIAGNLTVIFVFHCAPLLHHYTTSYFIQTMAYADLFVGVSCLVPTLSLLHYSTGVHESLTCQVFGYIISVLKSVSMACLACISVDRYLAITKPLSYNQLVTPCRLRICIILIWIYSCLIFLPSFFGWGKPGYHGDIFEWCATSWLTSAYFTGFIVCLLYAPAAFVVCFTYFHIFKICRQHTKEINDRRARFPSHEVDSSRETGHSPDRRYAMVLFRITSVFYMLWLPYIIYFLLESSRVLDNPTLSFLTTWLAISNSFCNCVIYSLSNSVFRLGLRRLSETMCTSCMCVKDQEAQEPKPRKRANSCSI
Method: Following BacMam infection, cells were pelleted by centrifugation (335 g, 5 min), resuspended in cell freezing medium (Sigma) and frozen at −150° C. until required. On experiment day, 25 nL GPR52 compound dilutions, prepared in DMSO, were stamped onto proxiplates (PerkinElmer) by a LabCyte ECHO acoustic dispenser. Frozen cells were thawed and resuspended in assay stimulation buffer (Cisbio) containing 0.5 mM 3-iso-butyl-1-methylxanthine (IBMX, Sigma) to achieve a density of 2000 cells per well. 10 μl cells were added to assay plates using a Multidrop Combi Reagent Dispenser (ThermoFisher) before centrifugation (335 g, 1 min). Cells were incubated with compounds at 37° C. for 30 min prior to addition of cAMP detection reagents (HiRange cAMP kit, Cisbio) which were prepared according to the manufacturer's instructions. Plates were shaken for 1 h at room temperature before reading on a PHERAstar FS plate reader (BMG Labtech) using standard HTRF settings.

Row | Emax [1] | EC50 | Compound | Emax
1 | 83% | 251 nM | Cc1nn(-c2ccnc(C(O)c3cc(F)cc(C(F)(F)F)c3)c2)c2c1C(=O)NCC2 (single isomer, unassigned) [117 Isomer 1, 1-(2-((3-fluoro-5-(trifluoromethyl)phenyl)(hydroxy)methyl)pyridin-4-yl)-3-methyl-1,5,6,7-tetrahydro-4H-pyrazolo[4,3-c]pyridin-4-one] | 
2 | 94% | 126 nM | Cc1nn(-c2cc(C(O)c3cc(F)cc(C(F)(F)F)c3)ccn2)c2c1C(=O)NCC2 (single isomer, unassigned) [118 Isomer 1, 1-(4-((3-fluoro-5-(trifluoromethyl)phenyl)(hydroxy)methyl)pyridin-2-yl)-3-methyl-1,5,6,7-tetrahydro-4H-pyrazolo[4,3-c]pyridin-4-one] | 
3 | 95% | 31.6 nM | CC1Cc2c(cnn2-c2ccnc(Cc3cc(F)cc(C(F)(F)F)c3)c2)C(=O)N1 (single isomer, unassigned) [Example 40 Isomer 1, 1-(2-(3-fluoro-5-(trifluoromethyl)benzyl)pyridin-4-yl)-6-methyl-1,5,6,7-tetrahydro-4H-pyrazolo[4,3-c]pyridin-4-one] | 
4 | 82% | 501 nM | Cc1cc(Cc2ccnc(-n3ncc4c3CCNC4=O)c2)cnc1F [Example 6, 1-(4-((6-fluoro-5-methylpyridin-3-yl)methyl)pyridin-2-yl)-1,5,6,7-tetrahydro-4H-pyrazolo[4,3-c]pyridin-4-one] | 
5 | 83% | 200 nM | Cc1cc(Cc2ccnc(-n3ncc4c3CCN(C)C4=O)c2)cnc1F [Example 7, 1-(4-((6-fluoro-5-methylpyridin-3-yl)methyl)pyridin-2-yl)-5-methyl-1,5,6,7-tetrahydro-4H-pyrazolo[4,3-c]pyridin-4-one] | 
6 | 75% | 316 nM | O=C1NCCc2nn(-c3cc(Cc4cccc(C(F)(F)F)c4)ccn3)cc21 [Example 8, 2-(4-(3-(trifluoromethyl)benzyl)pyridin-2-yl)-2,5,6,7-tetrahydro-4H-pyrazolo[4,3-c]pyridin-4-one] | 
7 | 90% | 7.94 nM | O=C1NCCCc2c1cnn2-c1cc(Cc2cc(F)cc(C(F)(F)F)c2)ccn1 [Example 10, 1-(4-(3-fluoro-5-(trifluoromethyl)benzyl)pyridin-2-yl)-5,6,7,8-tetrahydropyrazolo[4,3-c]azepin-4(1H)-one] | 
8 | 86% | 63.1 nM | O=C1NCCCc2c1cnn2-c1cc(Cc2cccc(C(F)(F)F)c2)ccn1 [Example 11, 1-(4-(3-(trifluoromethyl)benzyl)pyridin-2-yl)-5,6,7,8-tetrahydropyrazolo[4,3-c]azepin-4(1H)-one] | 
9 | 89% | 25.1 nM | O=C1NCCOc2c1cnn2-c1cc(Cc2cccc(C(F)(F)F)c2)ccn1 [Example 13, 1-(4-(3-(trifluoromethyl)benzyl)pyridin-2-yl)-6,7-dihydro-1H-pyrazolo[4,3-f][1,4]oxazepin-4(5H)-one] | 
10 | 103% | 10 nM | O=C1NCCOc2c1cnn2-c1cc(Cc2cc(F)cc(C(F)(F)F)c2)ccn1 [Example 14, 1-(4-(3-fluoro-5-(trifluoromethyl)benzyl)pyridin-2-yl)-6,7-dihydro-1H-pyrazolo[4,3-f][1,4]oxazepin-4(5H)-one] | 
11 | 95% | 126 nM | O=C1NCCc2c1cnn2-c1cc(Cc2cc(F)cc(C(F)(F)F)c2)cnn1 [Example 15, 1-(5-(3-fluoro-5-(trifluoromethyl)benzyl)pyridazin-3-yl)-1,5,6,7-tetrahydro-4H-pyrazolo[4,3-c]pyridin-4-one] | 
12 | 96% | 1260 nM | O=C1NCCc2c1cnn2-c1cnnc(Cc2cc(F)cc(C(F)(F)F)c2)c1 [Example 17, 1-(6-(3-fluoro-5-(trifluoromethyl)benzyl)pyridazin-4-yl)-1,5,6,7-tetrahydro-4H-pyrazolo[4,3-c]pyridin-4-one] | 
13 | 82% | 79.4 nM | O=C1NCCc2c1cnn2-c1cc(Oc2cc(F)cc(C(F)(F)F)c2)ccn1 [Example 18, 1-(4-(3-fluoro-5-(trifluoromethyl)phenoxy)pyridin-2-yl)-1,5,6,7-tetrahydro-4H-pyrazolo[4,3-c]pyridin-4-one] | 
14 | 101% | 158 nM | O=C1NCCc2c1cnn2-c1ccnc(Cc2cc(F)cc(Cl)c2)c1 [Example 20, 1-(2-(3-chloro-5-fluorobenzyl)pyridin-4-yl)-1,5,6,7-tetrahydro-4H-pyrazolo[4,3-c]pyridin-4-one] | 
15 | 100% | 1260 nM | O=C1NCCc2c1cnn2-c1ccnc(Cc2cc(F)cc(F)c2)c1 [Example 21, 1-(2-(3,5-difluorobenzyl)pyridin-4-yl)-1,5,6,7-tetrahydro-4H-pyrazolo[4,3-c]pyridin-4-one] | 
16 | 91% | 200 nM | O=C1NCCc2c1cnn2-c1ccnc(Cc2cccc(C(F)(F)F)c2)c1 [Example 22, 1-(2-(3-(trifluoromethyl)benzyl)pyridin-4-yl)-1,5,6,7-tetrahydro-4H-pyrazolo[4,3-c]pyridin-4-one] | 
17 | 90% | 158 nM | O=C1NCCc2c1cnn2-c1ccnc(Cc2ccc(F)c(C(F)(F)F)c2)c1 [Example 23, 1-(2-(4-fluoro-3-(trifluoromethyl)benzyl)pyridin-4-yl)-1,5,6,7-tetrahydro-4H-pyrazolo[4,3-c]pyridin-4-one] | 
18 | 95% | 316 nM | O=C1NCCc2c1cnn2-c1ccnc(Cc2cc(F)c(F)c(F)c2)c1 [Example 24, 1-(2-(3,4,5-trifluorobenzyl)pyridin-4-yl)-1,5,6,7-tetrahydro-4H-pyrazolo[4,3-c]pyridin-4-one] | 
19 | 89% | 158 nM | O=C1NCCc2c1cnn2-c1ccnc(Cc2ccc(F)c(Cl)c2)c1 [Example 25, 1-(2-(3-chloro-4-fluorobenzyl)pyridin-4-yl)-1,5,6,7-tetrahydro-4H-pyrazolo[4,3-c]pyridin-4-one] | 
20 | 95% | 79.4 nM | Cc1cc(F)cc(Cc2cc(-n3ncc4c3CCNC4=O)ccn2)c1 [Example 26, 1-(2-(3-fluoro-5-methylbenzyl)pyridin-4-yl)-1,5,6,7-tetrahydro-4H-pyrazolo[4,3-c]pyridin-4-one] | 
21 | 90% | 79.4 nM | O=C1NCCc2c1cnn2-c1ccnc(Cc2cc(Cl)cc(C(F)(F)F)c2)c1 [Example 27, 1-(2-(3-chloro-5-(trifluoromethyl)benzyl)pyridin-4-yl)-1,5,6,7-tetrahydro-4H-pyrazolo[4,3-c]pyridin-4-one] | 
22 | 88% | 100 nM | Cc1cc(Cc2cc(-n3ncc4c3CCNC4=O)ccn2)cc(C(F)(F)F)c1 [Example 28, 1-(2-(3-methyl-5-(trifluoromethyl)benzyl)pyridin-4-yl)-1,5,6,7-tetrahydro-4H-pyrazolo[4,3-c]pyridin-4-one] | 
23 | 57% | 2510 nM | O=C1NCCc2c1cnn2-c1ccnc(Cc2cccc(C(F)(F)F)c2F)c1 [Example 29, 1-(2-(2-fluoro-3-(trifluoromethyl)benzyl)pyridin-4-yl)-1,5,6,7-tetrahydro-4H-pyrazolo[4,3-c]pyridin-4-one] | 

Row | Compound | Emax [1] | EC50 | Emax
24 | O=C1NCCc2c1cnn2-c1ccnc(Cc2ccc(Cl)cc2)c1 [Example 19, 1-(2-(4-chlorobenzyl)pyridin-4-yl)-1,5,6,7-tetrahydro-4H-pyrazolo[4,3-c]pyridin-4-one] |  | 631 nM | 73%
